Measurements reported in patent US20030104079A1, “Skin tissue regeneration promoters comprising ginsenoside Rb1” (Japan Science and Technology Corporation, Japan, priority 2000, published 2003).

Experiments:
[1] = tested on: Bcl-xL gene; conditions: continuous intravenous administration 60 μg/day; cited from earlier work
[2] = tested on: incised wound of skin; assay: Incised wound healing by intravenous infusion; assay type: in vivo, Wistar rats; conditions: vs physiological saline
Description: In order to investigate the effects of low dosages, low doses or low concentrations of ginsenoside Rb1 on regeneration and/or reconstruction of skin tissue, the effect(s) of continuous intravenous infusion of ginsenoside Rb1 on incised wound of skin which enabled us to observe easily regeneration phenomena of tissues or cells was examined. Male, Wistar rats (body weight about 300 g) were used. The animals were bred in a room with a 12:12 hour light-dark cycle, and water and feed were supplied ad libitum. Incised wound with length about 3 cm was made in the dorsal region of animals under inhalation anesthesia, and sutured with nylon thread. One hour later, ginsenoside Rb1 (60 μg) dissolved in physiological saline was once intravenously injected. Thereafter continuous intravenous infusion of ginsenoside Rb1 (60 μg/day) was performed for 7 days by using an Alza osmotic minipump.
An equal amount of physiological saline was administered intravenously in the control animals, for which the same […] was made and sutured with nylon thread.
On day 2 after finishing continuous intravenous administration of ginsenoside Rb1 or physiological saline, the animals were anesthetized with pentobarbital and perfused transcardially with 0.1 M phosphate buffer containing 4% paraformaldehyde. […]

[3] = tested on: cuttings of pothos; assay: Hydroponic culture of cuttings of pothos (rooting); design: species or system pothos (Epipremunum aureum, golden pothos); conditions: 100 fg/ml in water
Description: Next, we have examined whether ginsenosides, especially ginsenoside Rb1, can promote generation, regeneration or reconstruction of not only skin tissue or mouth mucosal tissue but also plant tissues. For that purpose, one of foliage plants, pothos is selected. Six cuttings resembled with each other from the parent plant of pothos in the room of one of the inventors (Tanaka) were collected. Among them, 3 cuttings were cultured by hydroponics with the use of only water and the remaining three were cultured in water containing ginsenoside Rb1 at a concentration of 100 fg/ml. FIG. 9 is a photograph in place of drawing.
Then, we have further continued cultivation of the above cuttings with hydroponics and on day 22, again photographs were taken. FIG. 10 is a photograph in place of drawing. Left photograph in FIG. 10 is the cuttings of pothos cultured with only water for 22 days and right photograph in FIG. 10 is the cuttings cultured with water containing the low concentration of ginsenoside Rb1 (100 fg/ml). Waters with or without containing ginsenoside Rb1 for hydroponics were exchanged once in a week. We have further made observation of rooting region on day 27.
Next, we have examined whether a crude saponin fraction of ginseng, like ginsenoside Rb1 at low concentrations, can promote, generation, regeneration or reconstruction of the cutting of pothos. For that purpose, two cuttings resembled with each other from the parent plant of pothos were collected. Among them, the one cutting was cultured with only water and the remaining one was cultured in water containing the crude saponin fraction of ginseng at a concentration of 1450 fg/ml. FIG. 11 is a photograph in place of drawing. Left photograph in FIG. 11 is the cutting cultured with only water and right photograph in FIG. 11 is the cutting cultured with water containing the crude saponin fraction of ginseng (1450 fg/ml). […]

[4] = tested on: skin fibroblast; conditions: extracellular concentration 10 μg/ml; cited from earlier work

SMILES: CC(C)=CCC[C@](C)(O[C@@H]1O[C@H](CO[C@@H]2O[C@H](CO)[C@@H](O)[C@H](O)[C@H]2O)[C@@H](O)[C@H](O)[C@H]1O)[C@H]1CC[C@]2(C)[C@@H]1[C@H](O)C[C@@H]1[C@@]3(C)CC[C@H](O[C@@H]4O[C@H](CO)[C@@H](O)[C@H](O)[C@H]4O[C@@H]4O[C@H](CO)[C@@H](O)[C@H](O)[C@H]4O)C(C)(C)[C@@H]3CC[C@]12C [ginsenoside Rb1]
- expression of cell death-suppressing factor Bcl-xL gene in brain and nervous tissues [1]: caused an increase in the expression
- scar or granulation formation in incised wound (HE histology, FIG. 1) ([2]; 60 μg/day continuous iv for 7 days after one iv infusion, two days after end of infusion): scar or granulation formation was obviously little
- regeneration and reconstruction of epidermis, dermis and subcutaneous tissue after incised wound ([2]; 60 μg/day continuous iv for 7 days): regenerated, reconstructed or recovered to the nearly normal condition
- generation or regeneration of roots (FIG. 10) ([3]; 22 days): many roots were generated or regenerated
- growth of root (FIG. 9) ([3]; day 13, vs water alone): growth of root is promoted
- secondary rooting arising from the primary rooting regions ([3]; day 27, none on cuttings in water only): clearly observed on all three cuttings
- production of elastin [4]: can promote production of elastin in the skin fibroblast
